Data taken from patent US20160153002A1, “METHOD FOR CELL MEMBRANE PERMEATION FOR COMPOUND” (HitGen LTD., priority 2013, published 2016).
{NH2C12} = amino-(CH2)12 linker attached through a phosphate; {FITC} = fluorescein (FITC) label

System: HepG2 cells
Test: Transmembrane transfer of FITC-tagged single-stranded or double-stranded DNA/RNA with X-tremeGENEsiRNA reagent, laser confocal microscopy
Assay type: cell-based
Details: 4 nmol, 6 h, laser confocal microscope, FIG. 5
Procedure: 24 h before transfer, the HepG2 cells in the phase of logarithmic growth were digested with trypsin; a culture medium containing 10% serum was used for adjusting the cell density to 0.5×10^6 cells/mL; and the cells were inoculated again in a cell culture dish of 15 cm and cultured in a culture incubator containing 5% CO2 at 37° C. The cells may be used for experiments when the cell density reaches 60% to 70% 24 h later.
4 nmol of synthesized single-stranded or double-stranded DNA/RNA fragments in different sequences was added to a sterile centrifuge tube (tube A) of 15 mL, respectively, and uniformly mixed with Opti-MEM in a corresponding volume, with a total volume of 2 mL; the X-tremeGENEsiRNA reagent was shaken gently, and 160 μL of X-tremeGENEsiRNA reagent was mixed with 1.84 mL of Opti-MEM in another tube (tube B); and the solution in the tube A was mixed with the solution in the tube B, the mixture was slightly triturated by a pipette and incubated for 20 min at room temperature.
6 mL of RPMI-1640 serum-free culture medium was added to the mixture and mixed uniformly; the primary culture medium in the HepG2 cell culture dish was discarded, and slightly triturated with RPMI-1640 serum-free culture medium once; and then, the mixture was moved into the HepG2-PT cell culture dish, and cultured in a culture incubator containing 5% CO2 at 37° C. 6 h later, the positioning of the DNA/RNA in the cells was observed by a laser confocal microscope.

| Substance | positioning of the DNA/RNA in the cells (transfer into cells) |
| --- | --- |
| 5′-NH2—(CH2)12—PO4-A19-3′-FITC [polyA of 19 bp] | transferred into cells by X-tremesiRNA, with most of them into the cytoplasm and a few of them into the cell nucleus |
| 5′-NH2—(CH2)12—PO4-A3-3′-FITC [polyA of 38 bp] | transferred into cells by X-tremesiRNA, with most of them into the cytoplasm and a few of them into the cell nucleus |
| double-stranded random sequence fragments of 19 bp: duplex of 5′-NH2-(CH2)12-PO4-TGGGCTGGCCAAACTGCTG-3′-FITC with 3′-ACCCGACCGGTTTGACGAC-5′ | transferred into cells by X-tremesiRNA, with most of them into the cytoplasm and a few of them into the cell nucleus |
| 5′-NH2—(CH2)12—PO4-TGGGCTGGCCAAACTGCTG-3′-FITC (DNA, 5' {NH2C12}, 3' {FITC}, backbone and methylation of C not given here) | transferred into cells by X-tremesiRNA, with most of them into the cytoplasm and a few of them into the cell nucleus |
| 5′-NH2—(CH2)12—PO4-A5-3′-FITC [polyA of 5 bp] | transferred into cells by X-tremesiRNA, with most of them into the cytoplasm and a few of them into the cell nucleus |
